Measured values taken from the NIST ThermoML archive (doi:10.1016/j.jct.2019.06.022).
± gives the expanded uncertainty stated by the source.

Test: mn = molality of the nth substance listed, in mol/kg
Conditions: 298.15 K, 101.3 kPa, Liquid; for binary diffusion coefficient: Taylor dispersion method; for mass density: Vibrating tube method

Q: Which binary diffusion coefficient (m1 = 0.001004) does the source give for `O=C([O-])c1ccccc1O.[Na+]` [sodium salicylate] + O here?
A: 1.06e-09 m2/s

Q: What about the binary diffusion coefficient (m1 = 0.002502) of the same compound?
A: 1.05e-09 m2/s

Q: And the binary diffusion coefficient (m1 = 0.005026)?
A: 1.04e-09 m2/s

Q: And the binary diffusion coefficient (m1 = 0.007532)?
A: 1.02e-09 m2/s

Q: And the binary diffusion coefficient (m1 = 0.01004)?
A: 1.02e-09 m2/s

Q: And the mass density (m1 = 0.001004)?
A: 996.965 ± 0.4 kg/m3

Q: And the mass density (m1 = 0.002502)?
A: 997.145 ± 0.4 kg/m3

Q: What about the mass density (m1 = 0.005026) of the same compound?
A: 997.318 ± 0.4 kg/m3

Q: What about the mass density (m1 = 0.007532) of the same compound?
A: 997.434 ± 0.4 kg/m3

Q: What about the mass density (m1 = 0.01004) of the same compound?
A: 997.909 ± 0.4 kg/m3

Q: And the mass density (m1 = 0.05045)?
A: 999.801 ± 0.41 kg/m3

Q: And the mass density (m1 = 0.1014)?
A: 1003.01 ± 0.42 kg/m3
